# Assay results taken from ChEMBL document CHEMBL1140365, “Investigation of glycine alpha-ketoamide HCV NS3 protease inhibitors: effect of carboxylic acid isosteres” (Bioorg Med Chem Lett, 2005).
# *1 amine or outer side, *2 acyl side, *3 side chain or, on linkers, in order; H or OH if unused. Where a SMILES comes first, the peptide text is derived from it. [ ]: non-standard residue; d: D form. The star is where a group is joined. Abu(ψCOCO) = CC[C@H](N[*:1])C(=O)C(=O)[*:2]; X1 = O=C(C(=O)[*:2])[C@H](CC(F)F)N[*:1]; Pyrazinecarbonyl = O=C(c1cnccn1)*; Cha = N[C@@H](CC1CCCCC1)C(=O)O
# Molecular target: NS3 (Hepatitis C virus, UniProt A3EZJ3)
# Experiment: Inhibitory concentration against glycine alpha-ketoamide HCV NS3 protease
# Design: species or system Hepacivirus hominis
# NS3, sequence (A3EZJ3 whole entry): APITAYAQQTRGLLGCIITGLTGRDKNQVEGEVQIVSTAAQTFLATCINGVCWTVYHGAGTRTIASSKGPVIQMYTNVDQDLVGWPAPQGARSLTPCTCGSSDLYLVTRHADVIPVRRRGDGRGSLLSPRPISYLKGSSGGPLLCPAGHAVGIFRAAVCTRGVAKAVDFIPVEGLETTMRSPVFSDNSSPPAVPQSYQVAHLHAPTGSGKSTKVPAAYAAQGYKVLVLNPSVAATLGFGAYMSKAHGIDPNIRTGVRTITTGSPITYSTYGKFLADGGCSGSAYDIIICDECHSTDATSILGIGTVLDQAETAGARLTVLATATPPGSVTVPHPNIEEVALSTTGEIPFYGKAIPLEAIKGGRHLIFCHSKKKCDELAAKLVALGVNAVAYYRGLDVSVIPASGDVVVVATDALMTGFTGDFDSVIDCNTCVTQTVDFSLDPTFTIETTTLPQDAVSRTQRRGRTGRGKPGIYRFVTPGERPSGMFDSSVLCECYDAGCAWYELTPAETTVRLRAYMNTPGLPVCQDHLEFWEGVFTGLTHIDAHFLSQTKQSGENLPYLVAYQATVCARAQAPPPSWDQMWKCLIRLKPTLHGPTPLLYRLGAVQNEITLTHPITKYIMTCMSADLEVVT
row,Structure (SMILES),IC50 [nM]
1,CC[C@H](NC(=O)[C@H](CC1CCCCC1)NC(=O)[C@@H](NC(=O)[C@H](CC(C)C)NC(=O)c1cnccn1)[C@@H](C)CC)C(=O)C(=O)NCC(=O)NS(=O)(=O)c1ccc2ccccc2c1,1200
2,CC[C@H](NC(=O)[C@H](CC1CCCCC1)NC(=O)[C@@H](NC(=O)[C@H](CC(C)C)NC(=O)c1cnccn1)[C@@H](C)CC)C(=O)C(=O)NCC(=O)NS(=O)(=O)c1ccc(-c2ccccc2)cc1,2400
3,CC[C@H](C)[C@H](NC(=O)[C@H](CC(C)C)NC(=O)c1cnccn1)C(=O)N[C@@H](CC1CCCCC1)C(=O)N[C@@H](CC(F)F)C(=O)C(=O)NCC(=O)NS(=O)(=O)c1cccc(-c2ccccc2)c1,60
4,CCCCCC(=O)Nc1nnc(S(=O)(=O)NC(=O)CNC(=O)C(=O)[C@H](CC(F)F)NC(=O)[C@H](CC2CCCCC2)NC(=O)[C@@H](NC(=O)[C@H](CC(C)C)NC(=O)c2cnccn2)[C@@H](C)CC)s1,20
5,CC[C@H](C)[C@H](NC(=O)[C@H](CC(C)C)NC(=O)c1cnccn1)C(=O)N[C@@H](CC1CCCCC1)C(=O)N[C@@H](CC(F)F)C(=O)C(=O)NCC(=O)NS(=O)(=O)c1nnc(NC(=O)c2ccc(Cl)cc2)s1,20
6,CC[C@H](NC(=O)[C@H](CC1CCCCC1)NC(=O)[C@@H](NC(=O)[C@H](CC(C)C)NC(=O)c1cnccn1)[C@@H](C)CC)C(=O)C(=O)NCC(=O)O (Pyrazinecarbonyl-LI[Cha][Abu(ψCOCO)]G-OH),230
7,CC[C@H](NC(=O)[C@H](CC1CCCCC1)NC(=O)[C@@H](NC(=O)[C@H](CC(C)C)NC(=O)c1cnccn1)[C@@H](C)CC)C(=O)C(=O)NCC(=O)NS(=O)(=O)C(F)(F)F,470
8,CC[C@H](C)[C@H](NC(=O)[C@H](CC(C)C)NC(=O)c1cnccn1)C(=O)N[C@@H](CC1CCCCC1)C(=O)N[C@@H](CC(F)F)C(=O)C(=O)NCc1nn[nH]n1,40
9,CC[C@H](NC(=O)[C@H](CC1CCCCC1)NC(=O)[C@@H](NC(=O)[C@H](CC(C)C)NC(=O)c1cnccn1)[C@@H](C)CC)C(=O)C(=O)NCC(=O)NS(=O)(=O)c1cccc([N+](=O)[O-])c1,410
10,CC[C@H](NC(=O)[C@H](CC1CCCCC1)NC(=O)[C@@H](NC(=O)[C@H](CC(C)C)NC(=O)c1cnccn1)[C@@H](C)CC)C(=O)C(=O)NCC(=O)NS(=O)(=O)c1cc(C(=O)O)ccc1Cl,110
11,CC[C@H](NC(=O)[C@H](CC1CCCCC1)NC(=O)[C@@H](NC(=O)[C@H](CC(C)C)NC(=O)c1cnccn1)[C@@H](C)CC)C(=O)C(=O)NCC(=O)NS(=O)(=O)c1ccccc1,8900
12,CC[C@H](NC(=O)[C@H](CC1CCCCC1)NC(=O)[C@@H](NC(=O)[C@H](CC(C)C)NC(=O)c1cnccn1)[C@@H](C)CC)C(=O)C(=O)NCC(=O)NS(=O)(=O)Cc1ccccc1,12000

# The remaining molecules from weak to strong by IC50, led by results:
row,IC50 [nM],Structure (SMILES)
1,25000,CC[C@H](NC(=O)[C@H](CC1CCCCC1)NC(=O)[C@@H](NC(=O)[C@H](CC(C)C)NC(=O)c1cnccn1)[C@@H](C)CC)C(=O)C(=O)NCC(=O)NS(C)(=O)=O
2,920,CC[C@H](NC(=O)[C@H](CC1CCCCC1)NC(=O)[C@@H](NC(=O)[C@H](CC(C)C)NC(=O)c1cnccn1)[C@@H](C)CC)C(=O)C(=O)NCC(=O)NS(=O)(=O)c1ccc([N+](=O)[O-])cc1
3,640,CC[C@H](NC(=O)[C@H](CC1CCCCC1)NC(=O)[C@@H](NC(=O)[C@H](CC(C)C)NC(=O)c1cnccn1)[C@@H](C)CC)C(=O)C(=O)NCC(=O)NS(=O)(=O)c1cccc(-c2ccccc2)c1
4,460,CC[C@H](NC(=O)[C@H](CC1CCCCC1)NC(=O)[C@@H](NC(=O)[C@H](CC(C)C)NC(=O)c1cnccn1)[C@@H](C)CC)C(=O)C(=O)NCc1nn[nH]n1
5,250,CC[C@H](NC(=O)[C@H](CC1CCCCC1)NC(=O)[C@@H](NC(=O)[C@H](CC(C)C)NC(=O)c1cnccn1)[C@@H](C)CC)C(=O)C(=O)NCC(=O)NS(=O)(=O)c1nnc(NC(C)=O)s1
6,250,CC[C@H](NC(=O)[C@H](CC1CCCCC1)NC(=O)[C@@H](NC(=O)[C@H](CC(C)C)NC(=O)c1cnccn1)[C@@H](C)CC)C(=O)C(=O)NCC(=O)NS(=O)(=O)c1cccc(Cl)c1
7,220,CC[C@H](NC(=O)[C@H](CC1CCCCC1)NC(=O)[C@@H](NC(=O)[C@H](CC(C)C)NC(=O)c1cnccn1)[C@@H](C)CC)C(=O)C(=O)NCS(=O)(=O)O
8,130,CC[C@H](NC(=O)[C@H](CC1CCCCC1)NC(=O)[C@@H](NC(=O)[C@H](CC(C)C)NC(=O)c1cnccn1)[C@@H](C)CC)C(=O)C(=O)NCC(=O)NS(=O)(=O)c1cc(Cl)cc(Cl)c1
9,120,CC[C@H](NC(=O)[C@H](CC1CCCCC1)NC(=O)[C@@H](NC(=O)[C@H](CC(C)C)NC(=O)c1cnccn1)[C@@H](C)CC)C(=O)C(=O)NCC(=O)NS(=O)(=O)c1cc(Cl)cc(S(=O)(=O)NC(=O)c2ccccc2)c1
10,60,CC[C@H](C)[C@H](NC(=O)[C@H](CC(C)C)NC(=O)c1cnccn1)C(=O)N[C@@H](CC1CCCCC1)C(=O)N[C@@H](CC(F)F)C(=O)C(=O)NCC(=O)O (Pyrazinecarbonyl-LI[Cha][X1]G-OH)
11,60,CC[C@H](C)[C@H](NC(=O)[C@H](CC(C)C)NC(=O)c1cnccn1)C(=O)N[C@@H](CC1CCCCC1)C(=O)N[C@@H](CC(F)F)C(=O)C(=O)NCC(=O)NS(=O)(=O)c1cc(Cl)cc(S(=O)(=O)NC(=O)c2ccccc2)c1
12,50,CC[C@H](C)[C@H](NC(=O)[C@H](CC(C)C)NC(=O)c1cnccn1)C(=O)N[C@@H](CC1CCCCC1)C(=O)N[C@@H](CC(F)F)C(=O)C(=O)NCC(=O)NS(=O)(=O)c1cc(Cl)cc(S(N)(=O)=O)c1
